# In US10421761B2, “Compounds for kinase modulation, and indications therefor” (Plexxikon Inc., priority 2013, dated 2019):
# Test system: B9 cells
# Details: Repl. 1; B9 cells
smiles,measurement,value
CCCS(=O)(=O)Nc1ccc(F)c(C(=O)c2c[nH]c3ncc(-c4ccc(Cl)cc4)cc23)c1F [vemurafenib],"probe 1426300_at response, Alcam (activated leukocyte cell adhesion molecule)",2.35
same,"probe 1426306_a_at response, LOC100046560 /// Maged2 (similar to melanoma antigen family D, 2 /// melanoma antigen, family D, 2)",2.18
same,"probe 1426708_at response, Antxr2 (anthrax toxin receptor 2)",2.19
same,"probe 1426806_at response, Obfc2a (oligonucleotide/oligosaccharide-binding fold containing 2A)",2.33
same,"probe 1426848_at response, LOC100047481 /// Sec24b (similar to SEC24 related gene family, member B (S. cerevisiae) /// Sec24 related gene family, member B (S. cerevisiae))",0.69
same,"probe 1426972_at response, Sec24d (Sec24 related gene family, member D (S. cerevisiae))",2.06
same,"probe 1427278_at response, Clip4 (CAP-GLY domain containing linker protein family, member 4)",1.98
same,"probe 1427364_a_at response, Odc1 (ornithine decarboxylase, structural 1)",2.73
same,"probe 1427512_a_at response, Lama3 (laminin, alpha 3)",2.61
same,"probe 1427527_a_at response, Pthlh (parathyroid hormone-like peptide)",2.73
same,"probe 1427885_at response, Pold4 (polymerase (DNA-directed), delta 4)",2.20
same,"probe 1428114_at response, Slc14a1 (solute carrier family 14 (urea transporter), member 1)",2.61
same,"probe 1428195_at response, Ahcyl2 (S-adenosylhomocysteine hydrolase-like 2)",2.42
same,"probe 1428228_at response, Pgm3 (phosphoglucomutase 3)",2.18
same,"probe 1428419_at response, 5430411K18Rik (RIKEN cDNA 5430411K18 gene)",2.16
same,"probe 1428851_at response, 1300014I06Rik (RIKEN cDNA 1300014I06 gene)",2.30
same,"probe 1429700_at response, 3110040M04Rik (RIKEN cDNA 3110040M04 gene)",3.18
same,"probe 1429844_at response, 2310043J07Rik (RIKEN cDNA 2310043J07 gene)",0.52
same,"probe 1430010_at response, Ncapd2 (non-SMC condensin I complex, subunit D2)",0.43
same,"probe 1430567_at response, Spink5 (serine peptidase inhibitor, Kazal type 5)",0.46
same,"probe 1430623_s_at response, Obfc2a (oligonucleotide/oligosaccharide-binding fold containing 2A)",2.11
same,"probe 1430700_a_at response, Pla2g7 (phospholipase A2, group VII (platelet-activating factor acetylhydrolase, plasma))",2.36
same,"probe 1431416_a_at response, Jam2 (junction adhesion molecule 2)",2.12
same,"probe 1431422_a_at response, Dusp14 (dual specificity phosphatase 14)",2.14
same,"probe 1431611_a_at response, Cadm1 (cell adhesion molecule 1)",2.15
same,"probe 1431688_at response, LOC73899 (hypothetical LOC73899)",2.56
same,"probe 1431691_a_at response, Rab31 (RAB31, member RAS oncogene family)",1.98
same,"probe 1433909_at response, Syt17 (synaptotagmin XVII)",2.02
same,"probe 1434059_at response, B230312A22Rik (RIKEN cDNA B230312A22 gene)",2.26
same,"probe 1434092_at response, Atg9b (ATG9 autophagy related 9 homolog B (S. cerevisiae))",2.04
same,"probe 1434109_at response, Sh3bgrl2 (SH3 domain binding glutamic acid-rich protein like 2)",2.50
same,"probe 1434252_at response, Tmcc3 (transmembrane and coiled coil domains 3)",1.99
same,"probe 1434601_at response, Amigo2 (adhesion molecule with Ig like domain 2)",2.11
same,"probe 1434957_at response, Cdon (cell adhesion molecule-related/down-regulated by oncogenes)",0.44
same,"probe 1435066_at response, Pitpnc1 (phosphatidylinositol transfer protein, cytoplasmic 1)",2.04
same,"probe 1435176_a_at response, Id2 (inhibitor of DNA binding 2)",0.44
same,"probe 1435330_at response, Pyhin1 (pyrin and HIN domain family, member 1)",2.34
same,"probe 1435331_at response, Pyhin1 (pyrin and HIN domain family, member 1)",3.91
same,"probe 1435460_at response, Prkg2 (protein kinase, cGMP-dependent, type II)",2.07
same,"probe 1435695_a_at response, Ggct (gamma-glutamyl cyclotransferase)",2.16
same,"probe 1436100_at response, Sh2d5 (SH2 domain containing 5)",2.12
same,"probe 1436329_at response, Egr3 (early growth response 3)",2.75
same,"probe 1436584_at response, Spry2 (sprouty homolog 2 (Drosophila))",3.28
same,"probe 1436659_at response, Dclk1 (doublecortin-like kinase 1)",2.44
same,"probe 1436917_s_at response, Gpsm1 (G-protein signalling modulator 1 (AGS3-like, C. elegans))",2.22
same,"probe 1436944_x_at response, Pisd /// Pisd-ps1 ///Pisd-ps3 (phosphatidylserine decarboxylase /// phosphatidylserine decarboxylase, pseudogene 1 /// phosphatidylserine decarboxylase, pseudogene 3)",0.53
same,"probe 1437092_at response, Clip4 (CAP-GLY domain containing linker protein family, member 4)",2.37
same,"probe 1437100_x_at response, Pim3 (proviral integration site 3)",2.03
same,probe 1437199_at response,4.17
same,"probe 1437271_at response, Clcf1 (cardiotrophin-like cytokine factor 1)",2.09
same,"probe 1437486_at response, Gprc5a (G protein-coupled receptor, family C, group 5, member A)",2.49
same,"probe 1437982_x_at response, Cox15 (COX15 homolog, cytochrome c oxidase assembly protein (yeast))",0.51
same,"probe 1438038_at response, 4930402H24Rik (RIKEN cDNA 4930402H24 gene)",2.10
same,"probe 1438664_at response, Prkar2b (protein kinase, cAMP dependent regulatory, type II beta)",0.44
same,"probe 1438699_at response, Srd5a1 (steroid 5 alpha-reductase 1)",1.89
same,"probe 1439016_x_at response, Sprr2a (small proline-rich protein 2A)",0.40
same,"probe 1439109_at response, Ccdc68 (coiled-coil domain containing 68)",0.45
same,"probe 1439434_x_at response, Sh2d5 (SH2 domain containing 5)",2.06
same,"probe 1439797_at response, Ppard (peroxisome proliferator activator receptor delta)",2.09
same,"probe 1439878_at response, Ivl (involucrin)",3.09
same,"probe 1440169_x_at response, Ifnar2 (interferon (alpha and beta) receptor 2)",0.53
same,"probe 1440559_at response, Hmga2-ps1 (high mobility group AT-hook 2, pseudogene 1)",3.39
same,"probe 1441315_s_at response, Slc19a2 (solute carrier family 19 (thiamine transporter), member 2)",2.46
same,"probe 1441917_s_at response, Tmem40 (transmembrane protein 40)",2.00
same,probe 1442350_at response,2.22
same,"probe 1442363_at response, 1110012J17Rik (RIKEN cDNA 1110012J17 gene)",2.08
same,"probe 1443536_at response, Slc7a11 (solute carrier family 7 (cationic amino acid transporter, y+ system), member 11)",0.39
same,probe 1445758_at response,0.47
same,"probe 1446791_at response, Pi15 (peptidase inhibitor 15)",1.12
same,probe 1447661_at response,0.53
same,"probe 1447845_s_at response, Vnn1 (vanin 1)",0.46
same,"probe 1448364_at response, Ccng2 (cyclin G2)",2.30
same,"probe 1448532_at response, Prl8a9 (prolactin family8, subfamily a, member 9)",2.70
same,"probe 1448562_at response, Upp1 (uridine phosphorylase 1)",2.68
same,"probe 1448613_at response, Ecm1 (extracellular matrix protein 1)",2.00
same,"probe 1448617_at response, Cd53 (CD53 antigen)",2.24
same,"probe 1448810_at response, Gne (glucosamine)",2.16
same,"probe 1448855_at response, Rassf1 (Ras association (RalGDS/AF-6) domain family member 1)",1.97
same,"probe 1448894_at response, Akr1b8 (aldo-keto reductase family 1, member B8)",2.01
same,"probe 1448978_at response, Ngef (neuronal guanine nucleotide exchange factor)",3.21
same,"probe 1449038_at response, Hsd11b1 (hydroxysteroid 11-beta dehydrogenase 1)",2.96
same,"probe 1449125_at response, Tnfaip8l1 (tumor necrosis factor, alpha-induced protein 8-like 1)",2.14
same,"probe 1449133_at response, Sprr1a (small proline-rich protein 1A)",2.53
same,"probe 1449268_at response, Gfpt1 (glutamine fructose-6-phosphate transaminase 1)",2.82
same,"probe 1449297_at response, Casp12 (caspase 12)",0.41
same,"probe 1449334_at response, Timp3 (tissue inhibitor of metalloproteinase 3)",0.43
same,"probe 1449367_at response, Trex2 (three prime repair exonuclease 2)",4.45
same,"probe 1449408_at response, Jam2 (junction adhesion molecule 2)",2.04
same,"probe 1449545_at response, Fgf18 (fibroblast growth factor 18)",3.88
same,"probe 1449965_at response, Mcpt8 (mast cell protease 8)",2.83
same,"probe 1450241_a_at response, Evi2a (ecotropic viral integration site 2a)",4.78
same,"probe 1450262_at response, Clcf1 (cardiotrophin-like cytokine factor 1)",2.62
same,"probe 1450276_a_at response, Scin (scinderin)",2.73
same,"probe 1450376_at response, Mxi1 (Max interacting protein 1)",2.20
same,"probe 1450430_at response, Mrc1 (mannose receptor, C type 1)",2.66
same,"probe 1450501_at response, Itga2 (integrin alpha 2)",3.02
same,"probe 1450791_at response, Nppb (natriuretic peptide precursor type B)",4.55
same,"probe 1450976_at response, Ndrg1 (N-myc downstream regulated gene 1)",2.23
same,"probe 1451006_at response, Xdh (xanthine dehydrogenase)",0.40
same,"probe 1451308_at response, Elovl4 (elongation of very long chain fatty acids (FEN1/Elo2, SUR4/Elo3, yeast)-like 4)",2.50
same,"probe 1451446_at response, Antxr1 (anthrax toxin receptor 1)",0.41
same,"probe 1451501_a_at response, Ghr (growth hormone receptor)",2.21
same,"probe 1451529_at response, Sgtb (small glutamine-rich tetratricopeptide repeat (TPR)-containing, beta)",1.91
same,"probe 1451798_at response, Il1rn (interleukin 1 receptor antagonist)",3.05
same,"probe 1452058_a_at response, Rnfl1 (ring finger protein 11)",2.07
same,"probe 1452087_at response, Epsti1 (epithelial stromal interaction 1 (breast))",2.20
same,"probe 1452203_at response, Obfc2a (oligonucleotide/oligosaccharide-binding fold containing 2A)",2.07
same,"probe 1452521_a_at response, Plaur (plasminogen activator, urokinase receptor)",2.33
same,"probe 1453055_at response, Sema6d (sema domain, transmembrane domain (TM), and cytoplasmic domain, (semaphorin) 6D)",3.32
same,"probe 1453278_a_at response, Clip4 (CAP-GLY domain containing linker protein family, member 4)",2.00
same,"probe 1453345_at response, Nipal1 (NIPA-like domain containing 1)",3.86
same,"probe 1454048_a_at response, 4931408A02Rik /// LOC630876 (RIKEN cDNA 4931408A02 gene /// similar to Protein C21orf63 homolog precursor)",0.40
same,"probe 1454254_s_at response, 1600029D21Rik (RIKEN cDNA 1600029D21 gene)",2.37
same,"probe 1454649_at response, Srd5a1 (steroid 5 alpha-reductase 1)",2.02
same,"probe 1454699_at response, LOC100047324 /// Sesn1 (similar to Sesn1 protein /// sestrin 1)",0.50
same,"probe 1454710_at response, Spink2 (serine peptidase inhibitor, Kazal type 2)",2.39
same,"probe 1454780_at response, Galntl4 (UDP-N-acetyl-alpha-D-galactosamine:polypeptide N-acetylgalactosaminyltransferase-like 4)",0.42
same,"probe 1454877_at response, Sertad4 (SERTA domain containing 4)",0.40
